Measurements from the supplement of paper PMC11208160.

Assay: recombinant UMI read abundance after kanamycin selection (control-corrected) (log10(CPM+1)); higher = more efficient recombination; extreme values may be limits of the assay; sequences stand for … in AGTGCAGAGAAAATCGGCCAGTTTTCTCTGCCTGCAGTCCGCATGCCGTGGGACCCCTTGGGTTCTAACCTGTTGCCTAGATTTATGCAGCGGACTGCCTTTCTCCCAAAGTGATAAACCGG…AGGTTGGTTTCACT; site = the 11-nt donor
Summary of the method: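 Pooled Escherichia coli screen of donor and donor-binding-loop pairs for the IS621 bridge recombinase. Each pair sits with a 12-nt UMI on a plasmid carrying a promoterless kanamycin gene. The library was co-electroporated with a target plasmid encoding a fixed target and T7-inducible recombinase, then plated with IPTG (0.07 mM) plus kanamycin, or unselected, each in two replicates. Recombinant UMIs were PCR-amplified across the donor–target junction and sequenced. Counts became CPM, averaged over replicates, scaled by control-derived factors and reported as log10(CPM+1).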
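Further: IS621 bridge recombinase in Escherichia coli cells against a fixed T5 target plasmid.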

Sequence	recombinant UMI read abundance (log10)
CGAGCATCATGGACCGGTTTTCCCGGTAATCCGTATTTGCA (site CGATCATCTAG)	0
TGCCGCTCATGGACCGGTTTTCCCGGTAATCCGTATTTGGA (site TGCCGCTCTTC)	0.324
AAGGAGCCATGGACCGGTTTTCCCGGTAATCCGTATTTGGG (site AAGGAGCCTCC)	0.00843
CTACAAACATGGACCGGTTTTCCCGGTAATCCGTATTTGGA (site CTACGAACTTC)	0.0102
CAAGCAGCATGGACCGGTTTTCCCGGTAATCCGTATTTGCT (site AAAGCAGCTAG)	0
CCCACGCCATGGACCGGTTTTCCCGGTAATCCGTATTTGTA (site CCCACGCCTTA)	0.00594
GCTCCGACATGGACCGGTTTTCCCGGTAATCCGTATTTGGA (site GCTCCGACTTC)	0.0323
TGTTCGCCATGGACCGGTTTTCCCGGTAATCCGTATTTGTA (site TGTTCGCCTTA)	0.0127
CCTAATACATGGACCGGTTTTCCCGGTAATCCGTATTTGGC (site TCTAATACTGC)	0
TATGTGGCATGGACCGGTTTTCCCGGTAATCCGTATTTGAA (site TATGTGGCTTT)	0.784
CTAGTATCATGGACCGGTTTTCCCGGTAATCCGTATTTGAC (site CTATTATCTGT)	0.701
GTCGTAGCATGGACCGGTTTTCCCGGTAATCCGTATTTGCC (site GTCGTAGCTGG)	2.67
AAGCACGCATGGACCGGTTTTCCCGGTAATCCGTATTTGAG (site AAGCACGCTCA)	0.629
CTGGAAACATGGACCGGTTTTCCCGGTAATCCGTATTTGCA (site ATGGAAACTTG)	0
TGGGCGGCATGGACCGGTTTTCCCGGTAATCCGTATTTGAT (site TGGGCGGCTAT)	1.11
GCTCCAACATGGACCGGTTTTCCCGGTAATCCGTATTTGAA (site GCTCCAACTTT)	0.939
CTTCCCTCATGGACCGGTTTTCCCGGTAATCCGTATTTGTA (site CTTCGCTCTTA)	0.00376
GAGAAGCCATGGACCGGTTTTCCCGGTAATCCGTATTTGGG (site GGGAAGCCTCC)	0
CCCATACCATGGACCGGTTTTCCCGGTAATCCGTATTTGTC (site CCCATAGCTGA)	0

Sequence	recombinant UMI read abundance (log10)
CGATCGTCATGGACCGGTTTTCCCGGTAATCCGTATTTGTT (site CGATCGCCTAA)	0.0131
GCGAAGCCATGGACCGGTTTTCCCGGTAATCCGTATTTGGG (site GCGATGCCTCC)	0
CATTCTCCATGGACCGGTTTTCCCGGTAATCCGTATTTGAG (site CATTCTCCTCT)	0.0129
AATTATCCATGGACCGGTTTTCCCGGTAATCCGTATTTGCT (site CATTATCCTAG)	0.041
CTAGTATCATGGACCGGTTTTCCCGGTAATCCGTATTTGAC (site CAAGTATCTGA)	0
GTAGTCGCATGGACCGGTTTTCCCGGTAATCCGTATTTGCT (site GTAGTCGCTTG)	1.57
AAGGCGACATGGACCGGTTTTCCCGGTAATCCGTATTTGGA (site AAGGCGACTTC)	0.0223
ACAGTAACATGGACCGGTTTTCCCGGTAATCCGTATTTGCA (site ACAGTACCTTG)	0
TCCGGTCCATGGACCGGTTTTCCCGGTAATCCGTATTTGCA (site TCCGGTCCTTG)	0
GTTCCCTCATGGACCGGTTTTCCCGGTAATCCGTATTTGTA (site GTTCCCTCTTA)	2.5
CAAGAGACATGGACCGGTTTTCCCGGTAATCCGTATTTGCG (site CAAGAGACTCG)	3.11
CGTGGAACATGGACCGGTTTTCCCGGTAATCCGTATTTGTT (site CGTGGAACTAG)	0.951
CTCCCTACATGGACCGGTTTTCCCGGTAATCCGTATTTGCG (site CTCCCTACTCG)	0.488
GTAGTTACATGGACCGGTTTTCCCGGTAATCCGTATTTGAC (site GTAGATACTGT)	2.18
ATCCAAGCATGGACCGGTTTTCCCGGTAATCCGTATTTGAC (site ATCCAAGCTTT)	0.767
TGTACTCCATGGACCGGTTTTCCCGGTAATCCGTATTTGAC (site TGTACCCCTGT)	0.817
CCTTGCCCATGGACCGGTTTTCCCGGTAATCCGTATTTGAT (site GCTTGCCCTAT)	0.00408
GCTTGCCCATGGACCGGTTTTCCCGGTAATCCGTATTTGAG (site GCTTGCCCTGT)	0
ACCCATCCATGGACCGGTTTTCCCGGTAATCCGTATTTGAC (site ACTCATCCTGT)	0

Sequence	recombinant UMI read abundance (log10)
CGCGGACCATGGACCGGTTTTCCCGGTAATCCGTATTTGGG (site CGCGGACCTCC)	0
TTACCTGCATGGACCGGTTTTCCCGGTAATCCGTATTTGTG (site TTAACTGCTCA)	0.013
CTTGAGTCATGGACCGGTTTTCCCGGTAATCCGTATTTGTT (site CTTGAGTCTAA)	2.46
ACGTGCACATGGACCGGTTTTCCCGGTAATCCGTATTTGGG (site ACGTGCACTCC)	0.0159
GGTGGAACATGGACCGGTTTTCCCGGTAATCCGTATTTGTT (site GGTGGAACTAA)	0.746
TGTTTCCCATGGACCGGTTTTCCCGGTAATCCGTATTTGTA (site TGTTACCCTTA)	0.139
AACGGTCCATGGACCGGTTTTCCCGGTAATCCGTATTTGAT (site AACGGTCCTAT)	0
AGGAAAACATGGACCGGTTTTCCCGGTAATCCGTATTTGCA (site AGGAAGACTTG)	0
GATTACTCATGGACCGGTTTTCCCGGTAATCCGTATTTGTC (site GATTACTCTGA)	1.09
CAAGCAGCATGGACCGGTTTTCCCGGTAATCCGTATTTGAT (site CAAGCAGCTAG)	0.784
AGGTTGCCATGGACCGGTTTTCCCGGTAATCCGTATTTGTG (site AGGTTCCCTCA)	0.00991
CCCTTCTCATGGACCGGTTTTCCCGGTAATCCGTATTTGGC (site CCCTTCTCTCC)	0.455
GAAATCTCATGGACCGGTTTTCCCGGTAATCCGTATTTGCG (site GAAATCTCTCG)	2.44
GCTAAAACATGGACCGGTTTTCCCGGTAATCCGTATTTGCT (site GCGAAAACTAG)	1.28
AGGAACACATGGACCGGTTTTCCCGGTAATCCGTATTTGCA (site AGGAATACTTG)	0.211
CCCACCGCATGGACCGGTTTTCCCGGTAATCCGTATTTGCG (site TCCACCGCTCG)	0.00493
TCAGGTTCATGGACCGGTTTTCCCGGTAATCCGTATTTGGA (site TCAGGTTCTTC)	2.16
CCCGCTCCATGGACCGGTTTTCCCGGTAATCCGTATTTGCA (site CCCGTTCCTTG)	0
GTATGCACATGGACCGGTTTTCCCGGTAATCCGTATTTGTT (site GTATGCACTGA)	1.66
